According to patent US9763961B2, “Compositions that modulate the activity of estrogen receptors and estrogen-related receptors and methods for use” (CITY OF HOPE, priority 2005, dated 2017):

Legend:
[1] = system: promoter I.3 of human aromatase gene (through ERRα); assay: Aromatase promoter I.3 luciferase reporter with pSG5-ERRα in HepG2 cells; assay type: cell-based; details: 24 h, FIG. 5
Description: Aromatase expression is regulated by several promoters, including ERRα modulating promoter I.3. In order to evaluate the effect of chalcones on aromatase activity through ERRα, transient transfection experiments using luciferase reporter plasmid containing a regulatory element S1 and promoter I.3 of human aromatase gene were performed in HepG2 cells. The transfected cells were incubated with chalcones, and luciferase activity was measured.
Referring to FIG. 5, HepG2 cells were cotransfected with pSG5-ERRα (2 μg) and luciferase reporter plasmid containing S1 and promoter I.3 of human aromatase gene (0.5 μg). The transfected cells were incubated with Compound No. 1-9 for 24 h. After cells were washed with 1× PBS, luciferase activity was measured. Values represent the mean±SD.

ERRα = target: T1, ERRα (Homo sapiens, UniProt P11474); assay: Transient transfection assays, relative luciferase activity for ERRα (FIG. 7); assay type: cell-based
T1 sequence (P11474 1-423): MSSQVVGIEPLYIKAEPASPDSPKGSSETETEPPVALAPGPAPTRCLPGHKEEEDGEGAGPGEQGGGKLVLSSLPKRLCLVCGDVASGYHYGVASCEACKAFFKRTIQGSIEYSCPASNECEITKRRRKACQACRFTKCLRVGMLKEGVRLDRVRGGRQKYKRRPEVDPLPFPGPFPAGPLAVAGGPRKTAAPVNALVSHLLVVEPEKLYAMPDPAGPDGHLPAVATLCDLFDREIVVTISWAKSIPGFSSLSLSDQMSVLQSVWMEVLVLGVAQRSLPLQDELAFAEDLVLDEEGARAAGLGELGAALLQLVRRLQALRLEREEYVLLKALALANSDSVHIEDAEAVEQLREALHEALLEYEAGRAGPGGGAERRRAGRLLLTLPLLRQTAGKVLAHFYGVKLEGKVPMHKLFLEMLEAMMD
Description: HeLa cells were cultured in MEM Earle's salts medium supplemented with 5% charcoal/dextran-treated fetal bovine serum. Cells were then divided and cultured in 6-well plates until 80% confluence was achieved. The cells were next transfected with 4 μg Lipofectin. An equal amount of total DNA was used in all transfections by including appropriate amounts of the empty vector, pSG5, in addition to specific amounts of pSG5-ERRα and luciferase reporter plasmids (ERRE (ERRα recognizes an ERE half site)-containing reporter and aromatase promoter I.3-containing reporter). Following an overnight incubation, the medium containing Lipofectin and DNA was removed, and the cells cultured in a growth medium containing 5% charcoal/dextran-treated fetal bovine serum with or without ligands. After a 24-hour incubation, the cells was harvested from the plates by scraping, and the luciferase activities in the cell lysates (with the same amounts of protein) was measured according to the manufacturer's instructions (Promega). All experiments were performed in triplicate.
Referring to FIG. 2, we have also prepared GAL4-ERRα expression plasmid and luciferase reporter plasmids with GAL4 response element. This is a more sensitive assay method than that using pSG5-ERRα and ERE luciferase reporter plasmids.
The 2-methoxyl group may be important for the antagonistic activity of the chalcone. […]

**Q.** With `COc1cccc(/C=C/C(=O)c2ccc(O)cc2O)c1OC` [Compound No. 1-9, 2′,4′-Dihydroxy-2,3-dimethoxychalcone] as the molecule, how does the “Effect on promoter I.3 activity” value [1] read?
**A.** Its value is “suppressed the promoter I.3 activity in a dose-dependent manner”.

**Q.** And the “Effect on constitutive activity of ERRα (relative luciferase activity)” value (ERRα; compared to DMSO control, FIG. 7)?
**A.** The value was “can suppress the constitutive activity of ERRα”.

**Q.** What about the IC50 (ERRα; read-out: IC50 values through transient transfection assays) of the same molecule?
**A.** The IC50 was 700 to 2000 nM.
